# Assay results published in ChEMBL document CHEMBL1201862, “PubChem BioAssay data set” (2004).
#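 Cultured in 96-well plates, cells were exposed to test compound for 48 hours across five concentrations. GI50: concentration for 50% inhibition of growth.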 Calls of active or inactive are those of the source. Rule as the data show it: active = GI50 up to about 1.1 µM and inactive = higher.
# Key:
# Experiment in all cases: inhibition of tumour cell growth, NCI panel, 48 h
# U-251 = system: U-251
# DMS-114 = system: DMS-114
# OVCAR-8 = system: OVCAR-8
# RXF 393 = system: RXF 393
# HCC 2998 = system: HCC 2998
# DLD-1 = system: DLD-1
# OVCAR-5 = system: OVCAR-5
# A498 = system: A498
# IGROV-1 = system: IGROV-1
# UACC-62 = system: UACC-62
# SF-295 = system: SF-295
# NCI-H23 = system: NCI-H23
# SNB-75 = system: SNB-75
# HOP-18 = system: HOP-18
# MOLT-4 = system: MOLT-4
# ACHN = system: ACHN
# EKVX = system: EKVX
# OVCAR-4 = system: OVCAR-4
# CAKI-1 = system: CAKI-1
# RXF 631 = system: RXF 631
# HCT-15 = system: HCT-15
# SK-OV-3 = system: SK-OV-3
# M19-MEL = system: M19-MEL
# SK-MEL-28 = system: SK-MEL-28
# HOP-92 = system: HOP-92
# SNB-78 = system: SNB-78
# COLO 205 = system: COLO 205
# DMS-273 = system: DMS-273
# NCI-H226 = system: NCI-H226
# SW-620 = system: SW-620
# SK-MEL-5 = system: SK-MEL-5
# RPMI-8226 = system: RPMI-8226
# UACC-257 = system: UACC-257
# SF-539 = system: SF-539
# M14 = system: M14
# HOP-62 = system: HOP-62
# NCI-H460 = system: NCI-H460
# KM12 = system: KM12
# OVCAR-3 = system: OVCAR-3
# A549 = system: A549
# LOX IMVI = system: LOX IMVI
# HCT-116 = system: HCT-116
# HL-60 = system: HL-60
# SK-MEL-2 = system: SK-MEL-2
# SNB-19 = system: SNB-19
# K562 = system: K562
# CCRF-CEM = system: CCRF-CEM
# 786-0 = system: 786-0
# SN12C = system: SN12C
# UO-31 = system: UO-31
# TK-10 = system: TK-10
# HT-29 = system: HT-29
# SF-268 = system: SF-268
# LXFL 529 = system: LXFL 529
# NCI-H522 = system: NCI-H522
# KM-20L2 = system: KM-20L2
# Malme-3M = system: Malme-3M
structure (smiles),measurement,setting,value
Cc1cccc(-c2nc3c(C(=O)NCCN(C)C)cccc3[nH]2)c1,GI50,U-251,1490 nM (inactive)
same,GI50,DMS-114,1240 nM (inactive)
same,GI50,OVCAR-8,708 nM (active)
same,GI50,RXF 393,1190 nM (inactive)
same,GI50,HCC 2998,1000 nM (active)
same,GI50,DLD-1,407 nM (active)
same,GI50,OVCAR-5,1880 nM (inactive)
same,GI50,A498,1540 nM (inactive)
same,GI50,IGROV-1,830 nM (active)
same,GI50,UACC-62,1800 nM (inactive)
same,GI50,SF-295,1100 nM (active)
same,GI50,NCI-H23,1060 nM (active)
same,GI50,SNB-75,2200 nM (inactive)
same,GI50,HOP-18,605 nM (active)
same,GI50,MOLT-4,406 nM (active)
same,GI50,ACHN,2260 nM (inactive)
same,GI50,EKVX,1460 nM (inactive)
same,GI50,OVCAR-4,809 nM (active)
same,GI50,CAKI-1,2230 nM (inactive)
same,GI50,RXF 631,394 nM (active)
same,GI50,HCT-15,414 nM
same,GI50,SK-OV-3,1490 nM (inactive)
same,GI50,M19-MEL,1670 nM (inactive)
same,GI50,SK-MEL-28,2040 nM (inactive)
same,GI50,HOP-92,1280 nM (inactive)
same,GI50,SNB-78,3490 nM (inactive)
same,GI50,COLO 205,363 nM (active)
same,GI50,DMS-273,411 nM (active)
same,GI50,NCI-H226,1850 nM (inactive)
same,GI50,SW-620,352 nM (active)
same,GI50,SK-MEL-5,1650 nM (inactive)
same,GI50,RPMI-8226,3120 nM (inactive)
same,GI50,UACC-257,1670 nM (inactive)
same,GI50,SF-539,724 nM (active)
same,GI50,M14,1630 nM (inactive)
same,GI50,HOP-62,1720 nM (inactive)
same,GI50,NCI-H460,369 nM (active)
same,GI50,KM12,944 nM (active)
same,GI50,OVCAR-3,1890 nM (inactive)
same,GI50,A549,1100 nM (active)
same,GI50,LOX IMVI,708 nM (active)
same,GI50,HCT-116,329 nM (active)
same,GI50,HL-60,2290 nM (inactive)
same,GI50,SK-MEL-2,1860 nM (inactive)
same,GI50,SNB-19,1980 nM (inactive)
same,GI50,K562,863 nM (active)
same,GI50,CCRF-CEM,1020 nM (active)
same,GI50,786-0,1590 nM (inactive)
same,GI50,SN12C,650 nM (active)
same,GI50,UO-31,2060 nM (inactive)
same,GI50,TK-10,1370 nM (inactive)
same,GI50,HT-29,520 nM (active)
same,GI50,SF-268,1580 nM (inactive)
c1ccc(P(=C2c3ccccc3-c3ccccc32)(c2ccccc2)c2ccccc2)cc1,GI50,LXFL 529,3850 nM (inactive)
same,GI50,U-251,3050 nM (inactive)
same,GI50,DMS-114,2790 nM (inactive)
same,GI50,OVCAR-8,3040 nM (inactive)
same,GI50,RXF 393,13000 nM (inactive)
same,GI50,HCC 2998,3630 nM (inactive)
same,GI50,DLD-1,4320 nM (inactive)
same,GI50,OVCAR-5,4320 nM (inactive)
same,GI50,IGROV-1,6700 nM (inactive)
same,GI50,UACC-62,3460 nM (inactive)
same,GI50,SF-295,2940 nM (inactive)
same,GI50,NCI-H23,2450 nM (inactive)
same,GI50,SNB-75,28100 nM (inactive)
same,GI50,HOP-18,4470 nM (inactive)
same,GI50,ACHN,2660 nM (inactive)
same,GI50,EKVX,5580 nM (inactive)
same,GI50,OVCAR-4,6100 nM (inactive)
same,GI50,CAKI-1,6410 nM (inactive)
same,GI50,RXF 631,5640 nM (inactive)
same,GI50,HCT-15,5020 nM
same,GI50,SK-OV-3,20700 nM (inactive)
same,GI50,M19-MEL,4940 nM (inactive)
same,GI50,SK-MEL-28,6500 nM (inactive)
same,GI50,HOP-92,2750 nM (inactive)
same,GI50,COLO 205,3420 nM (inactive)
same,GI50,DMS-273,5040 nM (inactive)
same,GI50,SW-620,3370 nM (inactive)
same,GI50,SK-MEL-5,2170 nM (inactive)
same,GI50,NCI-H522,1600 nM (inactive)
same,GI50,UACC-257,3940 nM (inactive)
same,GI50,SF-539,11500 nM (inactive)
same,GI50,M14,8340 nM (inactive)
same,GI50,HOP-62,1690 nM (inactive)
same,GI50,KM-20L2,2560 nM (inactive)
same,GI50,NCI-H460,3370 nM (inactive)
same,GI50,KM12,2240 nM (inactive)
same,GI50,OVCAR-3,2530 nM (inactive)
same,GI50,A549,7000 nM (inactive)
same,GI50,LOX IMVI,2830 nM (inactive)
same,GI50,HL-60,1800 nM (inactive)
same,GI50,SK-MEL-2,5350 nM (inactive)
same,GI50,SNB-19,4670 nM (inactive)
same,GI50,K562,2100 nM (inactive)
same,GI50,CCRF-CEM,2510 nM (inactive)
same,GI50,786-0,4680 nM (inactive)
same,GI50,SN12C,3150 nM (inactive)
same,GI50,UO-31,8870 nM (inactive)
same,GI50,TK-10,7640 nM (inactive)
same,GI50,HT-29,2990 nM (inactive)
same,GI50,SF-268,7190 nM (inactive)
same,GI50,Malme-3M,3080 nM (inactive)
